According to ChEMBL document CHEMBL3046668, “Phytoene desaturase inhibition by O-(2-phenoxy)ethyl-N-aralkylcarbamates” (J Agric Food Chem, 2003):

What follows are molecules tested against 15-cis-phytoene desaturase (Synechococcus elongatus (strain PCC 7942) (Anacystis nidulans R2), UniProt P26294) (assay: Inhibition of Synechococcus PCC 7942 phytoene desaturase expressed in Escherichia coli JM101 using phytoene as substrate after 8 hr by Dixon plot analysis). Details: read-out: I50.
Chain of 15-cis-phytoene desaturase (P26294 whole entry): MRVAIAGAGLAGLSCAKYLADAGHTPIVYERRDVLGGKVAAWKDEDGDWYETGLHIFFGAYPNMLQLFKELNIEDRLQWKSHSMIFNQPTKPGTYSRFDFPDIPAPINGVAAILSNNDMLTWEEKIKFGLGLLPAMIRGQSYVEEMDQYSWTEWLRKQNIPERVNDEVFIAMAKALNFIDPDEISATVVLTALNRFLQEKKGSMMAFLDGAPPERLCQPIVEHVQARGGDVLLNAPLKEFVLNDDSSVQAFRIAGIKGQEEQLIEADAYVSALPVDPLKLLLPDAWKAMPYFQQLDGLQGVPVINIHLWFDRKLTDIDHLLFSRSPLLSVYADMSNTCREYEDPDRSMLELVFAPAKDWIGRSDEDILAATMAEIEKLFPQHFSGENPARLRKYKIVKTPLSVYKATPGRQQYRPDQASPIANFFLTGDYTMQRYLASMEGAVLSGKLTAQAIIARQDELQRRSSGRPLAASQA

Row | SMILES | IC50 [nM]
1 | CCC(COc1cccc(C(F)(F)F)c1)OC(=O)NCc1ccccc1 (stereo not drawn) | 13
2 | CNc1cnn(-c2cccc(C(F)(F)F)c2)c(=O)c1Cl [NORFLURAZONE] | 29
3 | CCC(CSc1cccc(Cl)c1)OC(=O)NCc1ccccc1 (stereo not drawn) | 5400
